Data: DBAASP
Values after ≈ are worked out from the molar mass of the structure shown.

What was measured:
Experiment in all cases: ≥ marks a high value that may be exact or a test limit, other limits are often not marked, values filed in µg/mL are converted to µM
[1] = tested on: Escherichia coli ATCC 25922
[2] = tested on: Staphylococcus aureus ATCC 29213
[3] = tested on: Pseudomonas aeruginosa ATCC 27853
Staphylococcus aureus = tested on: Staphylococcus aureus
Escherichia coli = tested on: Escherichia coli

Compound | MIC [1] [µM] | MIC [2] [µM] | MIC [3] [µM] | MIC (Staphylococcus aureus) [µM] | MIC (Escherichia coli) [µM]
CC[C@H](C)[C@H](NC(=O)[C@H](CCCN=C(N)N)NC(=O)[C@H](CCC(N)=O)NC(=O)[C@@H](NC(=O)[C@@H](NC(=O)[C@H](CCCN=C(N)N)NC(=O)[C@H](CCCCN)NC(=O)[C@@H](N)Cc1ccccc1)[C@@H](C)CC)C(C)C)C(=O)N[C@@H](CCCCN)C(=O)N[C@@H](CC(=O)O)C(=O)N[C@@H](CO)C(=O)N[C@@H](CC(C)C)C(=O)N[C@@H](CCCN=C(N)N)C(=O)O [FKRIVQRIKDSLR] | 10 (≈ 16.6 µg/mL) | > 40 | – | – | –
CC[C@H](C)[C@H](NC(=O)CN)C(=O)NCC(=O)N[C@@H](CCCCN)C(=O)N[C@@H](Cc1ccccc1)C(=O)N[C@@H](CC(C)C)C(=O)N[C@@H](Cc1cnc[nH]1)C(=O)N[C@@H](CO)C(=O)N[C@@H](C)C(=O)N[C@@H](CCCCN)C(=O)N[C@@H](CCCCN)C(=O)N1CCC[C@H]1C(=O)NCC(=O)N[C@@H](CCCCN)C(=O)N[C@@H](C)C(=O)N[C@@H](Cc1ccccc1)C(=O)N[C@H](C(=O)NCC(=O)N[C@@H](CCC(=O)O)C(=O)N[C@H](C(=O)N[C@@H](CCSC)C(=O)N[C@@H](CC(N)=O)C(=O)N[C@@H](CO)C(N)=O)[C@@H](C)CC)C(C)C [GIGKFLHSAKKPGKAFVGEIMNS] | 26.5 (≈ 64 µg/mL) | 106 (≈ 256 µg/mL) | 53 (≈ 128 µg/mL) | – | –
NCC(=O)N[C@@H](CCCN=C(N)N)C(=O)N[C@@H](CCCN=C(N)N)C(=O)N1CCC[C@H]1C(=O)N[C@@H](CCCN=C(N)N)C(=O)N1CCC[C@H]1C(=O)N[C@@H](CCCN=C(N)N)C(=O)N1CCC[C@H]1C(=O)N[C@@H](CCCN=C(N)N)C(=O)N1CCC[C@H]1C(=O)N[C@@H](Cc1c[nH]c2ccccc12)C(=O)N[C@@H](Cc1c[nH]c2ccccc12)C(=O)N[C@@H](Cc1c[nH]c2ccccc12)C(N)=O [GRRPRPRPRPWWW] | 20 (≈ 36 µg/mL) | 40 (≈ 72.1 µg/mL) | 80 (≈ 144 µg/mL) | – | –
CC(=O)N[C@@H](CCCCN)C(=O)N[C@@H](CC(C)C)C(=O)N[C@@H](CC(C)C)C(=O)N[C@@H](CCCCN)C(=O)N[C@@H](CC(C)C)C(=O)N[C@@H](CC(C)C)C(=O)N[C@@H](CCCCN)C(=O)N[C@@H](CCCCN)C(=O)N[C@@H](CC(C)C)C(=O)N1CCC[C@H]1C(=O)N[C@@H](CCCCN)C(=O)N[C@@H](CC(C)C)C(=O)N[C@@H](CC(C)C)C(=O)N[C@@H](CCCCN)C(N)=O [KLLKLLKKLPKLLK] | 40 (≈ 68.7 µg/mL) | 40 (≈ 68.7 µg/mL) | – | – | –
CC(=O)N[C@@H](CCCCN)C(=O)N[C@@H](CC(C)C)C(=O)N1CCC[C@H]1C(=O)N[C@@H](CCCCN)C(=O)N[C@@H](CC(C)C)C(=O)N[C@@H](CC(C)C)C(=O)N[C@@H](CCCCN)C(=O)N[C@@H](CCCCN)C(=O)N[C@@H](CC(C)C)C(=O)N[C@@H](CC(C)C)C(=O)N[C@@H](CCCCN)C(=O)N[C@@H](CC(C)C)C(=O)N[C@@H](CC(C)C)C(=O)N[C@@H](CCCCN)C(N)=O [KLPKLLKKLLKLLK] | 10 (≈ 17.2 µg/mL) | 10 (≈ 17.2 µg/mL) | – | – | –
CC(=O)N[C@@H](CCCCN)C(=O)N1CCC[C@H]1C(=O)N[C@@H](CC(C)C)C(=O)N[C@@H](CCCCN)C(=O)N[C@@H](CC(C)C)C(=O)N[C@@H](CC(C)C)C(=O)N[C@@H](CCCCN)C(=O)N[C@@H](CCCCN)C(=O)N[C@@H](CC(C)C)C(=O)N[C@@H](CC(C)C)C(=O)N[C@@H](CCCCN)C(=O)N[C@@H](CC(C)C)C(=O)N[C@@H](CC(C)C)C(=O)N[C@@H](CCCCN)C(N)=O [KPLKLLKKLLKLLK] | 7.07 (≈ 12.1 µg/mL) | 7.07 (≈ 12.1 µg/mL) | – | – | –
CC(C)C[C@H](NC(=O)[C@H](CCCCN)NC(=O)[C@H](CC(C)C)NC(=O)[C@H](CC(C)C)NC(=O)[C@H](CCCCN)NC(=O)[C@H](CCCCN)NC(=O)[C@H](CC(C)C)NC(=O)[C@H](CC(C)C)NC(=O)[C@H](CCCCN)NC(=O)[C@H](C)NC(=O)[C@H](CC(C)C)NC(=O)[C@H](CCCCN)NC(=O)[C@H](CCCCN)NC(=O)[C@@H](N)CC(C)C)C(=O)N[C@@H](C)C(=O)NCC(=O)O [LKKLAKLLKKLLKLAG] | 10 (≈ 17.8 µg/mL) | 10 (≈ 17.8 µg/mL) | – | – | –
CC(C)C[C@H](NC(=O)[C@H](C)NC(=O)[C@H](CCCCN)NC(=O)[C@H](CC(C)C)NC(=O)[C@H](CC(C)C)NC(=O)[C@H](CCCCN)NC(=O)[C@H](CCCCN)NC(=O)[C@@H](N)CC(C)C)C(=O)N[C@@H](CCCCN)C(=O)N[C@@H](CCCCN)C(=O)N[C@@H](CC(C)C)C(=O)N[C@@H](CC(C)C)C(=O)N[C@@H](CCCCN)C(=O)N[C@@H](CC(C)C)C(=O)N[C@@H](C)C(=O)NCC(=O)O [LKKLLKALKKLLKLAG] | 10 (≈ 17.8 µg/mL) | 10 (≈ 17.8 µg/mL) | – | – | –
CC(C)C[C@H](NC(=O)[C@H](CCCCN)NC(=O)[C@H](CC(C)C)NC(=O)[C@H](CC(C)C)NC(=O)[C@H](CCCCN)NC(=O)[C@H](CCCCN)NC(=O)[C@@H](N)CC(C)C)C(=O)NCC(=O)N[C@@H](CCCCN)C(=O)N[C@@H](CCCCN)C(=O)N[C@@H](CC(C)C)C(=O)N[C@@H](CC(C)C)C(=O)N[C@@H](CCCCN)C(=O)N[C@@H](CC(C)C)C(=O)N[C@@H](C)C(=O)NCC(=O)O [LKKLLKLGKKLLKLAG] | 2.5 (≈ 4.41 µg/mL) | 5 (≈ 8.82 µg/mL) | – | – | –
CC(=O)N[C@@H](CC(C)C)C(=O)N[C@@H](CCCCN)C(=O)N[C@@H](CCCCN)C(=O)N[C@@H](CC(C)C)C(=O)N[C@@H](CC(C)C)C(=O)N[C@@H](CCCCN)C(=O)N[C@@H](CC(C)C)C(=O)N[C@@H](CC(C)C)C(=O)N[C@@H](CCCCN)C(=O)N[C@@H](CCCCN)C(=O)N[C@@H](CC(C)C)C(=O)N[C@@H](CC(C)C)C(=O)N[C@@H](CCCCN)C(=O)N[C@@H](CC(C)C)C(N)=O [LKKLLKLLKKLLKL] | 14.1 (≈ 24.5 µg/mL) | 14.1 (≈ 24.5 µg/mL) | – | – | –
CC(=O)N[C@@H](CC(C)C)C(=O)N[C@@H](CCCCN)C(=O)N[C@@H](CCCCN)C(=O)N1CCC[C@H]1C(=O)N[C@@H](CC(C)C)C(=O)N[C@@H](CCCCN)C(=O)N[C@@H](CC(C)C)C(=O)NCC(=O)N[C@@H](CCCCN)C(=O)N[C@@H](CCCCN)C(=O)N[C@@H](CC(C)C)C(=O)N[C@@H](CC(C)C)C(=O)N[C@@H](CCCCN)C(=O)N[C@@H](CC(C)C)C(N)=O [LKKPLKLGKKLLKL] | 7.07 (≈ 11.7 µg/mL) | 40 (≈ 66.4 µg/mL) | – | – | –
CC[C@H](C)[C@H](NC(=O)[C@H](CCCN=C(N)N)NC(=O)[C@H](CCCCN)NC(=O)[C@@H](N)CCC(N)=O)C(=O)N[C@@H](CCCN=C(N)N)C(=O)N[C@H](C(=O)N[C@@H](CCCN=C(N)N)C(=O)N[C@@H](CC(C)C)C(=O)N[C@@H](CO)C(=O)N[C@@H](C)C(=O)O)C(C)C [QKRIRVRLSA] | 26.1 (≈ 32 µg/mL) | > 52.2 | 26.1 (≈ 32 µg/mL) | – | –
CC(C)C[C@H](NC(=O)[C@H](Cc1ccccc1)NC(=O)[C@H](C)NC(=O)[C@H](Cc1c[nH]c2ccccc12)NC(=O)[C@H](Cc1c[nH]c2ccccc12)NC(=O)[C@H](Cc1c[nH]c2ccccc12)NC(=O)[C@H](C)NC(=O)[C@H](Cc1ccccc1)NC(=O)[C@H](CCCN=C(N)N)NC(=O)[C@H](CCCN=C(N)N)NC(=O)[C@@H](N)C(C)C)C(=O)N[C@@H](CCCN=C(N)N)C(=O)N[C@@H](CCCN=C(N)N)C(N)=O [VRRFAWWWAFLRR] | 2 (≈ 3.7 µg/mL) | – | – | 2.7 (≈ 5 µg/mL) | 5.4 (≈ 9.99 µg/mL)
CC(C)C[C@H](NC(=O)[C@H](Cc1ccccc1)NC(=O)[C@H](C)NC(=O)[C@H](Cc1c[nH]c2ccccc12)NC(=O)[C@H](Cc1c[nH]c2ccccc12)NC(=O)[C@H](Cc1c[nH]c2ccccc12)NC(=O)[C@@H]1CCCN1C(=O)[C@H](Cc1ccccc1)NC(=O)[C@H](CCCN=C(N)N)NC(=O)[C@H](CCCN=C(N)N)NC(=O)[C@@H](N)C(C)C)C(=O)N[C@@H](CCCN=C(N)N)C(=O)N[C@@H](CCCN=C(N)N)C(N)=O [VRRFPWWWAFLRR] | 2.83 (≈ 5.3 µg/mL) | – | – | 2.66 (≈ 5 µg/mL) | 10.7 (≈ 20 µg/mL)
